Where two headings read alike, the source gives them in different places.
Experiments:
Type in all cases: biochemical
USP2 [1] = biological target: T1, USP2 (Homo sapiens, UniProt O75604)
SENP2 [2] = biological target: T2, SENP2 (Homo sapiens, UniProt Q9HC62)
T2 sequence (Q9HC62 366-589): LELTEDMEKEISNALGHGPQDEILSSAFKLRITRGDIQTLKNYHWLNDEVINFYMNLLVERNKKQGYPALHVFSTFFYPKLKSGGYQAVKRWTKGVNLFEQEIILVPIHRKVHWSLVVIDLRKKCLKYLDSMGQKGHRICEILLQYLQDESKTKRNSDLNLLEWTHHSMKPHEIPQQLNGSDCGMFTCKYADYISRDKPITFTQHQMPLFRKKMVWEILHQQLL

USP7 [3] = biological target: T3, USP7 (Homo sapiens, UniProt Q93009)
SENP2 [4] = biological target: T2, SENP2; experiment: SUMO3-PLA2 / NBD C6-HPC coupled fluorescence isopeptidase assay
USP2 [5] = biological target: T1, USP2; experiment: Ub-PLA2 / NBD C6-HPC coupled fluorescence isopeptidase assay
USP7 [6] = biological target: T3, USP7; experiment: as above

T3 sequence (Q93009 whole entry): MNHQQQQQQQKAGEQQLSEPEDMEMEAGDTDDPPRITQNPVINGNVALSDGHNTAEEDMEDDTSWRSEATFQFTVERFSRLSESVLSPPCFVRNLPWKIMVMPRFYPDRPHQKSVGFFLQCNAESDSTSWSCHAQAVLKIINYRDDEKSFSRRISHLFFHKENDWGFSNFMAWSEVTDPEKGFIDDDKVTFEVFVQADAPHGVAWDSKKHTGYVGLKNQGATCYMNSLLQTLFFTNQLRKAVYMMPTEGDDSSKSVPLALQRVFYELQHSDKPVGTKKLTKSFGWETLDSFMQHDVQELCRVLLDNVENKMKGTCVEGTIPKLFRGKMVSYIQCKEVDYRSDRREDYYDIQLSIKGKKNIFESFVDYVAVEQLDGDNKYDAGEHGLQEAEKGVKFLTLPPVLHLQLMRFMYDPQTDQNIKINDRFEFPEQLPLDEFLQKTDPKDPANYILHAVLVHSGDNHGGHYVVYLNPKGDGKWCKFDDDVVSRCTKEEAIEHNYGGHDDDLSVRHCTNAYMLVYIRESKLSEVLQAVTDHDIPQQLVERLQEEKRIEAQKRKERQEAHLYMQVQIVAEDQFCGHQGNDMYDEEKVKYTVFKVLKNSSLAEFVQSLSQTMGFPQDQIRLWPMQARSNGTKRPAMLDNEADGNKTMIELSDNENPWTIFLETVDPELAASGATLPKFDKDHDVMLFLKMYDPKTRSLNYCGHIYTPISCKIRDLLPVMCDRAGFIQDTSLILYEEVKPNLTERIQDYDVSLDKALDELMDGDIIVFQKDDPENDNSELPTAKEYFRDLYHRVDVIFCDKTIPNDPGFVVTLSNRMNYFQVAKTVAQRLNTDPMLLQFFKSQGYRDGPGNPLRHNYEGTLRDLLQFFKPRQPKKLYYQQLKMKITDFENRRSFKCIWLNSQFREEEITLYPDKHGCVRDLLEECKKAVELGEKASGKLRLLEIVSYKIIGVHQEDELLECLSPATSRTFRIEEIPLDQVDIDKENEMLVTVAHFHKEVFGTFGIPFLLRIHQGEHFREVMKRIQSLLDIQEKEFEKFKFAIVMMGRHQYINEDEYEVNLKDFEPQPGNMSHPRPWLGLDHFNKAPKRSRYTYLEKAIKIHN
T1 sequence (O75604 259-605): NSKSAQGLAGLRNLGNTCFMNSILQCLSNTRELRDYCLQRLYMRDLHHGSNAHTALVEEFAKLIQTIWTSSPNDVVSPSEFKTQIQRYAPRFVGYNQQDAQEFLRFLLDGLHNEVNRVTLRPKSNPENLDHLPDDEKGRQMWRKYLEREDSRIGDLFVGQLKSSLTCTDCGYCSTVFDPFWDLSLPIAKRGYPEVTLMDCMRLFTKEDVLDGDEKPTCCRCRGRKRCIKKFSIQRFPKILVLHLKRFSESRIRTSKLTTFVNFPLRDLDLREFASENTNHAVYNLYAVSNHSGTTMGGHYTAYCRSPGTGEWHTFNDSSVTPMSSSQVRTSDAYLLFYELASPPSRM

EC50 (USP2 [1]) | EC50 (SENP2 [2]) | EC50 (USP7 [3]) | EC50 (SENP2 [4]) | EC50 (USP2 [5]) | EC50 (USP7 [6]) | Compound
45 ± 4 µM | 9.8 ± 1.8 µM | 37 ± 1 µM |  |  |  | Cc1ccc(/C=C2\CNC/C(=C\c3ccc(C)cc3)C2=O)cc1 [NSC 632839]
 |  |  | 1300 ± 200 µM | 1900 ± 200 µM | 1400 ± 70 µM | CCN1C(=O)C=CC1=O [N‐Ethylmaleimide]

Reference: article PMC2386736 (Protein Science : A Publication of the Protein Society, 2009)
